Data from patent publication US20240174618A1, “SUBSTITUTED (2-HETEROARYLOXYPHENYL)SULFONATES, SALTS THEREOF AND THEIR USE AS HERBICIDAL AGENTS” (Bayer Aktiengesellschaft, priority 2021, published 2024).

Legend:
Format in all cases: in vivo
Poa annua (POAAN) = test: A. Herbicidal pre-emergence efficacy, POAAN
Summary of the method: (§1)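 Applied before emergence onto covering soil at rates of 1280 g/ha or less, using 600 L/ha spray water with 0.5% additive. Scoring: visual % efficacy after ~3 weeks, greenhouse.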

Stellaria media (STEME) [1] = test: A. Herbicidal pre-emergence efficacy, STEME
Summary of the method: as §1

[2] = tested on: Amaranthus retroflexus (AMARE); test: A. Herbicidal pre-emergence efficacy, AMARE
Summary of the method: as §1

Setaria viridis (SETVI) = test: B. Herbicidal post-emergence efficacy, SETVI
Summary of the method: (§2)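 Post-emergence foliar spray, at application rates of 1280 g/ha or less, on one-leaf-stage plants 2–3 weeks post-sowing, using aqueous WP or EC suspensions with 0.5% additive at 600 L/ha. Visual percent efficacy relative to untreated plants scored roughly 3 weeks later in the greenhouse.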

Stellaria media (STEME) [3] = test: B. Herbicidal post-emergence efficacy, STEME
Summary of the method: as §2

[4] = tested on: Abutilon theophrasti (ABUTH); test: C. Herbicidal pre-emergence efficacy, ABUTH; details: scored after about 3 weeks
Summary of the method: (§3)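 Pre-emergence test: formulated compounds sprayed as aqueous suspension or emulsion with 0.5% additive at 600 l/ha onto soil covering sown seeds, at rates corresponding to 320 g/ha or less. After about 3 weeks in greenhouse, efficacy scored visually as percent versus untreated controls (100% = plants dead).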

[5] = tested on: Amaranthus retroflexus (AMARE); test: C. Herbicidal pre-emergence efficacy, AMARE; details: scored after about 3 weeks
Summary of the method: as §3

[6] = tested on: Echinochloa crus-galli (ECHCG); test: E. Herbicidal post-emergence efficacy, ECHCG
Summary of the method: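 Visual scoring against untreated plants was done roughly 3 weeks after spraying (0% = no effect, 100% = plants dead). Spray application at 320 g/ha or lower, 600 l/ha water with 0.5% additive, was made onto green parts of one-leaf-stage greenhouse plants grown 2-3 weeks in sandy loam.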

Structure (SMILES) | Pre-emergence efficacy against POAAN (Poa annua (POAAN); dosage 320 g/ha) [%] | Pre-emergence efficacy against POAAN (Poa annua (POAAN); dosage 1280 g/ha) [%] | Pre-emergence efficacy against STEME (Stellaria media (STEME) [1]; dosage 320 g/ha) [%] | Pre-emergence efficacy against STEME (Stellaria media (STEME) [1]; dosage 1280 g/ha) [%] | Pre-emergence efficacy against AMARE in % ([2]; 80 g/ha) [%] | Pre-emergence efficacy against AMARE in % ([2]; 320 g/ha) [%] | Pre-emergence efficacy against AMARE in % ([2]; 1280 g/ha) [%] | Post-emergence efficacy against SETVI (Setaria viridis (SETVI); 1280 g/ha) [%] | Post-emergence efficacy against STEME (Stellaria media (STEME) [3]; 80 g/ha) [%] | Post-emergence efficacy against STEME (Stellaria media (STEME) [3]; 320 g/ha) [%] | Post-emergence efficacy against STEME (Stellaria media (STEME) [3]; 1280 g/ha) [%] | Pre-emergence efficacy against ABUTH ([4]; 320 g/ha) [%] | Pre-emergence efficacy against AMARE ([5]; 80 g/ha) [%] | Pre-emergence efficacy against AMARE ([5]; 320 g/ha) [%] | Post-emergence efficacy against ECHCG in % ([6]; application rate 320 g/ha) [%] | Post-emergence efficacy against SETVI (Setaria viridis (SETVI); 320 g/ha) [%] | Post-emergence efficacy against ECHCG in % ([6]; application rate 80 g/ha) [%] | Pre-emergence efficacy against POAAN (Poa annua (POAAN); dosage 80 g/ha) [%] | Pre-emergence efficacy against STEME (Stellaria media (STEME) [1]; dosage 80 g/ha) [%] | Pre-emergence efficacy against ABUTH ([4]; 80 g/ha) [%]
Cc1cccc(Oc2ncc(Cl)cn2)c1OS(=O)(=O)CC1CC(F)(F)C1 [Example I-74] | 100 | 100 | 90 | 100 | 90 | 100 | 100 | 100 | 100 | 100 | 100 | 90 | 90 | 100 | 100 |  |  |  |  | 
O=S(=O)(CCC1CC1)Oc1c(F)cccc1Oc1ncc(Cl)cn1 [Example I-55] | 90 | 100 | 100 | 100 | 100 | 100 | 100 | 90 | 90 | 90 | 90 |  | 100 | 100 | 100 | 90 | 90 |  |  | 
O=S(=O)(CCCC(F)(F)F)Oc1c(F)cccc1Oc1ncc(F)cn1 [Example I-42] | 100 | 100 | 100 | 100 | 100 | 100 | 100 |  | 100 | 100 | 100 | 100 | 100 | 100 | 100 |  | 100 | 100 | 100 | 100
CCCCCS(=O)(=O)Oc1ccccc1Oc1ncc(Cl)cn1 [Example I-24] | 100 | 100 | 100 | 100 | 90 | 100 | 100 | 90 | 90 | 90 | 100 |  | 100 | 100 | 80 |  |  |  |  | 
C=CCCS(=O)(=O)Oc1c(F)cccc1Oc1ncc(Cl)cn1 [Example I-50] | 90 | 100 | 100 | 100 | 90 | 90 | 100 | 90 |  |  |  | 100 | 100 | 100 | 100 |  |  | 90 |  | 
O=S(=O)(CCC(F)(F)F)Oc1c(F)cccc1Oc1ncc(F)cn1 [Example I-47] | 100 | 100 | 100 | 100 | 100 | 100 | 100 |  | 100 | 100 | 100 | 100 | 100 | 100 | 100 |  |  | 100 | 100 | 100
O=S(=O)(CCC(F)(F)F)Oc1c(F)cccc1Oc1ncc(Br)cn1 [Example I-40] | 100 | 100 | 100 | 100 | 100 | 100 | 100 | 90 |  |  |  | 100 | 100 | 100 | 100 | 90 | 100 | 100 |  | 100
Cc1cccc(Oc2ncc(F)cn2)c1OS(=O)(=O)CCCC(F)(F)F [Example I-46] | 100 | 100 | 100 | 100 | 100 | 100 | 100 |  | 90 | 100 | 100 | 100 | 80 | 100 | 100 |  |  | 90 | 90 | 100
